Measured values from US8455534B2, “Estrogen receptor modulators and uses thereof” (Aragon Pharmaceuticals, Inc., priority 2010, dated 2013).

Assays:
ER-α = molecular target: T1, ER-α (Homo sapiens, UniProt P03372); assay: Breast Cancer Cell ER-α In Cell Western Assay (SP1); type: cell-based; conditions: MCF-7 cells, SP1 antibody, 4 or 24 hr post compound addition; for Emax: MCF7, read-out: ER-α In Cell Western Assay (SP1) Max Response; for DC50: read-out: ER-α In Cell Western Assay (SP1) IC50
T1 sequence (P03372 1-595): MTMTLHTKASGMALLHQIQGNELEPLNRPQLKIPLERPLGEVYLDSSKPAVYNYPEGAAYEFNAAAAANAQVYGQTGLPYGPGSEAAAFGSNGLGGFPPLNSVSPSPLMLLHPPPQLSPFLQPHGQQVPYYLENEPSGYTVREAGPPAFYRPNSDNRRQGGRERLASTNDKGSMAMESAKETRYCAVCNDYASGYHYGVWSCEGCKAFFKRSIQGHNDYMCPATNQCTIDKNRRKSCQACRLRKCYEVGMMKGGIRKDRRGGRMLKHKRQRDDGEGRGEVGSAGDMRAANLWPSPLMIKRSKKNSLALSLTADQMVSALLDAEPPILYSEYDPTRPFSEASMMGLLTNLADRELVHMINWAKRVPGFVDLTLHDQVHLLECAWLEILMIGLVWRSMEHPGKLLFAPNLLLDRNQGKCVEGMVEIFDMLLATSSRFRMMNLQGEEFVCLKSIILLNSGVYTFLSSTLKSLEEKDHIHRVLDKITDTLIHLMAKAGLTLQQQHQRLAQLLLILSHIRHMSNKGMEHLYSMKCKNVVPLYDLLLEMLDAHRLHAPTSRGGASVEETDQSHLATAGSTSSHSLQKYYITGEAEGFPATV
In short: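 ER-α protein levels measured by in-cell western with SP1 antibody, ratioed to DRAQ5 DNA signal and given as percent of untreated controls. Compounds added at 0.3–0.000003 μM final (eleven semilog points) to adherent MCF-7 cells in stripped serum; exposure 4 or 24 h before fixation.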

MCF-7 cells = assay: Breast Cancer Cell Viability Assay (MCF-7, CellTiter-Glo); type: cell-based; conditions: 5 days' compound exposure; for IC50: Homo sapiens, MCF7, 120 h
In short: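 Eleven-point semilog compound series, final 0.3-0.000003 μM, added to overnight-adhered MCF-7 cells (320/well; RPMI, 10% FBS, 20 mM HEPES) for 5 days. Viability read by CellTiter-Glo luminescence, background from medium without cells subtracted, expressed relative to untreated cells.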

SMILES | Emax (ER-α) [%] | DC50 (ER-α) [nM] | MCF7 Viability Assay Max Response (MCF-7 cells) | IC50 (MCF-7 cells) [nM]
CC/C(=C(/c1ccc(/C=C/C(=O)O)cc1)c1ccc2[nH]nc(F)c2c1)c1ccc(F)cc1Cl [Compound 88, (E)-3-(4-((E)-2-(2-Chloro-4-fluorophenyl)-1-(3-fluoro-1H-indazol-5-yl)but-1-en-1-yl)phenyl)acrylic acid] | ≥ 40 | ≤ 100 | ++ (++ = a single % value ≧ 40%) | ≤ 100
CCOC(=O)/C=C/c1ccc(/C(=C(/CC)c2ccc(F)cc2Cl)c2ccc3[nH]ncc3c2)cc1.Cl [Compound 110, (E)-Ethyl 3-(4-((E)-2-(2-chloro-4-fluorophenyl)-1-(1H-indazol-5-yl)but-1-en-1-yl)phenyl)acrylate hydrochloride] | ≥ 40 | ≤ 100 | + (+ = a single % value < 40%) | ≤ 100
CC/C(=C(/c1ccc(/C=C/C(=O)O)cc1)c1ccc2[nH]ncc2c1)c1c(F)cccc1F [Compound 26, (E)-3-(4-((E)-2-(2,6-Difluorophenyl)-1-(1H-indazol-5-yl)but-1-en-1-yl)phenyl)acrylic acid] | ≥ 40 | ≤ 100 | ++ (++ = a single % value ≧ 40%) | ≤ 100
CC/C(=C(/c1ccc(/C=C/C(=O)O)cc1)c1ccc2[nH]ncc2c1F)c1ccc(Cl)cc1Cl [Compound 118, (E)-3-(4-((E)-2-(2,4-Dichlorophenyl)-1-(4-fluoro-1H-indazol-5-yl)but-1-en-1-yl)phenyl)acrylic acid] | ≥ 40 | ≤ 100 | ++ (++ = a single % value ≧ 40%) | ≤ 100
CC/C(=C(/c1ccc(/C=C/C(=O)O)cc1)c1ccc2[nH]ncc2c1F)c1ccc(Cl)cc1C(F)(F)F [Compound 119, (E)-3-(4-((E)-2-(4-Chloro-2-(trifluoromethyl)phenyl)-1-(4-fluoro-1H-indazol-5-yl)but-1-en-1-yl)phenyl)acrylic acid] | ≥ 40 | ≤ 100 | ++ (++ = a single % value ≧ 40%) | ≤ 100
CCCCOc1ccc(/C(CC)=C(\c2ccc(/C=C/C(=O)O)cc2)c2ccc3[nH]ncc3c2)cc1 [Compound 97, (E)-3-(4-((E)-2-(4-Butoxyphenyl)-1-(1H-indazol-5-yl)but-1-en-1-yl)phenyl)acrylic acid] | ≥ 40 | ≤ 100 | ++ (++ = a single % value ≧ 40%) | ≤ 100
O=C(O)/C=C/c1ccc(/C(=C(\c2ccccc2)C2CCC2)c2ccc3[nH]nc(F)c3c2)cc1 [Compound 87, (E)-3-(4-((E)-2-Cyclobutyl-1-(3-fluoro-1H-indazol-5-yl)-2-phenylvinyl)phenyl)acrylic acid] | ≥ 40 | ≤ 100 | ++ (++ = a single % value ≧ 40%) | ≤ 100
O=C(O)/C=C/c1ccc(/C(=C(\c2ccc(F)cc2Cl)C(F)F)c2ccc3[nH]ncc3c2)cc1 [Compound 74, (E)-3-(4-((Z)-2-(2-Chloro-4-fluorophenyl)-3,3-difluoro-1-(1H-indazol-5-yl)prop-1-en-1-yl)phenyl)acrylic acid] | ≥ 40 | ≤ 100 | ++ (++ = a single % value ≧ 40%) | ≤ 100
CC/C(=C(/c1ccc(/C=C/C(=O)O)c(C)c1)c1ccc2[nH]ncc2c1)c1ccccc1 [Compound 101, (E)-3-(4-((E)-1-(1H-Indazol-5-yl)-2-phenylbut-1-en-1-yl)-2-methylphenyl)acrylic acid] | ≥ 40 | – | ++ (++ = a single % value ≧ 40%) | ≤ 100
CC/C(=C(/c1ccc(/C=C/C(=O)O)cc1)c1ccc2[nH]ncc2c1)c1cc(F)ccc1C [Compound 30, (E)-3-(4-((E)-2-(5-Fluoro-2-methylphenyl)-1-(1H-indazol-5-yl)but-1-en-1-yl)phenyl)acrylic acid] | ≥ 40 | ≤ 100 | ++ (++ = a single % value ≧ 40%) | ≤ 100
CC/C(=C(/c1ccc(/C=C/C(=O)O)cc1)c1ccc2[nH]nc(Cl)c2c1)c1ccccc1 [Compound 40, (E)-3-(4-((E)-1-(3-Chloro-1H-indazol-5-yl)-2-phenylbut-1-en-1-yl)phenyl)acrylic acid] | ≥ 40 | > 100 | ++ (++ = a single % value ≧ 40%) | > 100
CC/C(=C(/c1ccc(/C=C/C(=O)O)cc1)c1ccc2[nH]ncc2c1)c1ccccc1C(F)(F)F [Compound 19, (E)-3-(4-((E)-1-(1H-Indazol-5-yl)-2-(2-(trifluoromethyl)phenyl)but-1-en-1-yl)phenyl)acrylic acid] | ≥ 40 | ≤ 100 | ++ (++ = a single % value ≧ 40%) | ≤ 100
CC/C(=C(/c1ccc(/C=C/C(=O)O)cc1)c1ccc2[nH]ncc2c1)c1ccc(CO)cc1 [Compound 7, (E)-3-(4-((E)-2-(4-(Hydroxymethyl)phenyl)-1-(1H-indazol-5-yl)but-1-en-1-yl)phenyl)acrylic acid] | ≥ 40 | ≤ 100 | ++ (++ = a single % value ≧ 40%) | ≤ 100
CC/C(=C(/c1ccc(/C=C/C(=O)O)cc1)c1ccc2[nH]ncc2c1)c1ccc(OC)cc1F [Compound 129, (E)-3-(4-((E)-2-(2-Fluoro-4-methoxyphenyl)-1-(1H-indazol-5-yl)but-1-en-1-yl)phenyl)acrylic acid] | ≥ 40 | ≤ 100 | ++ (++ = a single % value ≧ 40%) | ≤ 100
CC/C(=C(/c1ccc(/C=C(\C)C(=O)O)cc1)c1ccc2[nH]ncc2c1)c1ccccc1 [Compound 99, (E)-3-(4-((E)-1-(1H-Indazol-5-yl)-2-phenylbut-1-en-1-yl)phenyl)-2-methylacrylic acid] | ≥ 40 | ≤ 100 | ++ (++ = a single % value ≧ 40%) | ≤ 100
O=C(O)/C=C/c1ccc(/C(=C(/CC2CC2)c2ccccc2)c2ccc3[nH]ncc3c2)cc1 [Compound 56, (E)-3-(4-((E)-3-Cyclopropyl-1-(1H-indazol-5-yl)-2-phenylprop-1-en-1-yl)phenyl)acrylic acid] | ≥ 40 | ≤ 100 | ++ (++ = a single % value ≧ 40%) | ≤ 100
O=C(O)/C=C/c1ccc(/C(=C(\c2ccccc2)C(F)(F)F)c2ccc3[nH]ncc3c2)cc1 [Compound 68, (E)-3-(4-((Z)-3,3,3-Trifluoro-1-(1H-indazol-5-yl)-2-phenylprop-1-en-1-yl)phenyl)acrylic acid] | ≥ 40 | ≤ 100 | ++ (++ = a single % value ≧ 40%) | ≤ 100
CC/C(=C(/c1ccc(/C=C/C(=O)O)cc1)c1ccc2[nH]ncc2c1)c1cccc(O)c1 [Compound 93, (E)-3-(4-((E)-2-(3-Hydroxyphenyl)-1-(1H-indazol-5-yl)but-1-en-1-yl)phenyl)acrylic acid] | ≥ 40 | ≤ 100 | ++ (++ = a single % value ≧ 40%) | ≤ 100
CC/C(=C(/c1ccc(/C=C/C(=O)O)cc1)c1ccc2[nH]ncc2c1)c1cc(OC)ccc1Cl [Compound 130, (E)-3-(4-((E)-2-(2-Chloro-5-methoxyphenyl)-1-(1H-indazol-5-yl)but-1-en-1-yl)phenyl)acrylic acid] | ≥ 40 | ≤ 100 | ++ (++ = a single % value ≧ 40%) | ≤ 100
O=C(O)/C=C/c1ccc(/C(=C(\c2ccccc2Cl)C2CC2)c2ccc3[nH]ncc3c2)cc1 [Compound 57, (E)-3-(4-((E)-2-(2-Chlorophenyl)-2-cyclopropyl-1-(1H-indazol-5-yl)vinyl)phenyl)acrylic acid] | ≥ 40 | ≤ 100 | ++ (++ = a single % value ≧ 40%) | ≤ 100
O=C(O)/C=C/c1ccc(/C(=C(\c2ccc(F)cc2Cl)C2CCC2)c2ccc3[nH]nc(F)c3c2)cc1 [Compound 89, (E)-3-(4-((E)-2-(2-Chloro-4-fluorophenyl)-2-cyclobutyl-1-(3-fluoro-1H-indazol-5-yl)vinyl)phenyl)acrylic acid] | ≥ 40 | ≤ 100 | ++ (++ = a single % value ≧ 40%) | ≤ 100
